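Cultured in 96-well plates, cells were exposed to test compound for 48 hours across five concentrations. Definition used: TGI = concentration required for complete inhibition of growth.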
Experiments:
Assay in all cases: DTP human tumour cell line panel, 48 h
OVCAR-5 ovarian = test system: OVCAR-5 ovarian
SK-OV-3 ovarian = test system: SK-OV-3 ovarian
COLO 205 colon = test system: COLO 205 colon
HT29 colon = test system: HT29 colon
HOP-92 NSCLC = test system: HOP-92 NSCLC
HL-60(TB) leukemia = test system: HL-60(TB) leukemia
SNB-75 CNS = test system: SNB-75 CNS
NCI-H226 lung = test system: NCI-H226 lung
MOLT-4 leukemia = test system: MOLT-4 leukemia
SN12C renal = test system: SN12C renal
NCI/ADR-RES ovarian = test system: NCI/ADR-RES ovarian
SW-620 colon = test system: SW-620 colon
HCC-2998 colon = test system: HCC-2998 colon
SK-MEL-28 melanoma = test system: SK-MEL-28 melanoma
MALME-3M melanoma = test system: MALME-3M melanoma
HCT-116 colon = test system: HCT-116 colon
MDA-MB-231 breast = test system: MDA-MB-231 breast
MCF7 breast = test system: MCF7 breast
UACC-62 melanoma = test system: UACC-62 melanoma
HCT-15 colon = test system: HCT-15 colon
NCI-H23 lung = test system: NCI-H23 lung
IGROV1 ovarian = test system: IGROV1 ovarian
HOP-62 NSCLC = test system: HOP-62 NSCLC
CAKI-1 renal = test system: CAKI-1 renal
M14 melanoma = test system: M14 melanoma
HS 578T breast = test system: HS 578T breast
RXF 393 renal = test system: RXF 393 renal
LOX IMVI melanoma = test system: LOX IMVI melanoma
SNB-19 CNS = test system: SNB-19 CNS
PC-3 prostate = test system: PC-3 prostate
K-562 leukemia = test system: K-562 leukemia
A498 renal = test system: A498 renal
UO-31 renal = test system: UO-31 renal
SF-539 CNS = test system: SF-539 CNS
ACHN renal = test system: ACHN renal
786-0 renal = test system: 786-0 renal
EKVX NSCLC = test system: EKVX NSCLC
SF-295 CNS = test system: SF-295 CNS
A549 NSCLC = test system: A549 NSCLC
T-47D breast = test system: T-47D breast
OVCAR-8 ovarian = test system: OVCAR-8 ovarian
RPMI-8226 leukemia = test system: RPMI-8226 leukemia
CCRF-CEM leukemia = test system: CCRF-CEM leukemia
U251 CNS = test system: U251 CNS
OVCAR-3 ovarian = test system: OVCAR-3 ovarian
SK-MEL-5 melanoma = test system: SK-MEL-5 melanoma
NCI-H522 lung = test system: NCI-H522 lung
TK-10 renal = test system: TK-10 renal
NCI-H460 lung = test system: NCI-H460 lung
DU-145 prostate = test system: DU-145 prostate
BT-549 breast = test system: BT-549 breast
SF-268 CNS = test system: SF-268 CNS
UACC-257 melanoma = test system: UACC-257 melanoma
SK-MEL-2 melanoma = test system: SK-MEL-2 melanoma
MDA-MB-435 = test system: MDA-MB-435
OVCAR-4 ovarian = test system: OVCAR-4 ovarian
MDA-N = test system: MDA-N
KM12 colon = test system: KM12 colon
SR leukemia = test system: SR leukemia

## COC(=O)C1=C(C(=O)OC)C2(c3ccccc3)c3ccccc3C(=O)C1N2C1CCCCC1 (stereo not given)
OVCAR-5 ovarian
  TGI: > 100 µM
SK-OV-3 ovarian
  TGI: > 100 µM
COLO 205 colon
  TGI: 32.8 µM
HT29 colon
  TGI: > 100 µM
HOP-92 NSCLC
  TGI: > 100 µM
HL-60(TB) leukemia
  TGI: > 100 µM
SNB-75 CNS
  TGI: > 100 µM
NCI-H226 lung
  TGI: > 100 µM
MOLT-4 leukemia
  TGI: > 81.4 µM
SN12C renal
  TGI: > 100 µM
NCI/ADR-RES ovarian
  TGI: > 100 µM
SW-620 colon
  TGI: > 100 µM
HCC-2998 colon
  TGI: > 77.4 µM
SK-MEL-28 melanoma
  TGI: > 100 µM
MALME-3M melanoma
  TGI: > 100 µM
HCT-116 colon
  TGI: > 100 µM
MDA-MB-231 breast
  TGI: > 100 µM
MCF7 breast
  TGI: > 100 µM
UACC-62 melanoma
  TGI: > 100 µM
HCT-15 colon
  TGI: > 100 µM
NCI-H23 lung
  TGI: > 100 µM
IGROV1 ovarian
  TGI: > 100 µM
HOP-62 NSCLC
  TGI: > 100 µM
CAKI-1 renal
  TGI: > 100 µM
M14 melanoma
  TGI: > 100 µM
HS 578T breast
  TGI: > 100 µM
RXF 393 renal
  TGI: > 89 µM
LOX IMVI melanoma
  TGI: > 100 µM
SNB-19 CNS
  TGI: > 100 µM
PC-3 prostate
  TGI: > 100 µM
K-562 leukemia
  TGI: > 100 µM
A498 renal
  TGI: > 100 µM
UO-31 renal
  TGI: > 100 µM
SF-539 CNS
  TGI: > 100 µM
ACHN renal
  TGI: > 100 µM
786-0 renal
  TGI: > 100 µM
EKVX NSCLC
  TGI: > 100 µM
SF-295 CNS
  TGI: > 100 µM
A549 NSCLC
  TGI: > 100 µM
T-47D breast
  TGI: > 100 µM
OVCAR-8 ovarian
  TGI: > 100 µM
RPMI-8226 leukemia
  TGI: 40.6 µM
CCRF-CEM leukemia
  TGI: > 100 µM
U251 CNS
  TGI: > 100 µM
OVCAR-3 ovarian
  TGI: > 100 µM
SK-MEL-5 melanoma
  TGI: > 100 µM
NCI-H522 lung
  TGI: > 100 µM
TK-10 renal
  TGI: > 100 µM
NCI-H460 lung
  TGI: > 100 µM
DU-145 prostate
  TGI: > 100 µM
BT-549 breast
  TGI: > 100 µM
SF-268 CNS
  TGI: > 100 µM
UACC-257 melanoma
  TGI: > 100 µM
SK-MEL-2 melanoma
  TGI: > 100 µM
MDA-MB-435
  TGI: > 100 µM
OVCAR-4 ovarian
  TGI: > 100 µM
MDA-N
  TGI: > 100 µM
KM12 colon
  TGI: > 100 µM

## COC(=O)/N=[N+](\[O-])C(c1ccc(Cl)cc1)c1ccc(Cl)cc1
OVCAR-5 ovarian
  TGI: > 100 µM
SK-OV-3 ovarian
  TGI: > 100 µM
COLO 205 colon
  TGI: 59.1 µM
HT29 colon
  TGI: > 100 µM
HL-60(TB) leukemia
  TGI: 97.3 µM
SNB-75 CNS
  TGI: > 100 µM
NCI-H226 lung
  TGI: 89.6 µM
MOLT-4 leukemia
  TGI: > 100 µM
SN12C renal
  TGI: > 100 µM
NCI/ADR-RES ovarian
  TGI: > 100 µM
SW-620 colon
  TGI: > 100 µM
HCC-2998 colon
  TGI: > 100 µM
SK-MEL-28 melanoma
  TGI: > 100 µM
MALME-3M melanoma
  TGI: > 100 µM
SR leukemia
  TGI: > 100 µM
HCT-116 colon
  TGI: 95.3 µM
MDA-MB-231 breast
  TGI: 77.1 µM
MCF7 breast
  TGI: > 100 µM
UACC-62 melanoma
  TGI: > 100 µM
HCT-15 colon
  TGI: > 100 µM
NCI-H23 lung
  TGI: > 100 µM
IGROV1 ovarian
  TGI: > 100 µM
CAKI-1 renal
  TGI: 34.5 µM
M14 melanoma
  TGI: > 100 µM
HS 578T breast
  TGI: > 100 µM
RXF 393 renal
  TGI: 84.1 µM
LOX IMVI melanoma
  TGI: 43.6 µM
SNB-19 CNS
  TGI: > 100 µM
PC-3 prostate
  TGI: > 100 µM
K-562 leukemia
  TGI: > 100 µM
A498 renal
  TGI: > 100 µM
UO-31 renal
  TGI: 51.2 µM
SF-539 CNS
  TGI: > 100 µM
786-0 renal
  TGI: 96.5 µM
EKVX NSCLC
  TGI: > 100 µM
A549 NSCLC
  TGI: > 100 µM
T-47D breast
  TGI: 91.9 µM
OVCAR-8 ovarian
  TGI: > 100 µM
RPMI-8226 leukemia
  TGI: 67.3 µM
CCRF-CEM leukemia
  TGI: > 100 µM
U251 CNS
  TGI: > 100 µM
OVCAR-3 ovarian
  TGI: > 100 µM
SK-MEL-5 melanoma
  TGI: 78.6 µM
NCI-H522 lung
  TGI: > 100 µM
TK-10 renal
  TGI: > 100 µM
NCI-H460 lung
  TGI: > 100 µM
DU-145 prostate
  TGI: > 100 µM
BT-549 breast
  TGI: > 100 µM
SF-268 CNS
  TGI: > 100 µM
UACC-257 melanoma
  TGI: > 100 µM
SK-MEL-2 melanoma
  TGI: > 100 µM
MDA-MB-435
  TGI: > 100 µM
OVCAR-4 ovarian
  TGI: > 100 µM
MDA-N
  TGI: > 100 µM
KM12 colon
  TGI: > 100 µM

## N#Cc1c(Cl)cccc1Oc1ccc(S(=O)(=O)/N=C(\NO)Nc2ccc(Cl)cc2)cc1
OVCAR-5 ovarian
  TGI: 34.9 µM
COLO 205 colon
  TGI: 33.6 µM
HT29 colon
  TGI: 31.5 µM
HOP-92 NSCLC
  TGI: 24.6 µM
HL-60(TB) leukemia
  TGI: 37.8 µM
NCI-H226 lung
  TGI: 48 µM
MOLT-4 leukemia
  TGI: 44.1 µM
SN12C renal
  TGI: 29.4 µM
NCI/ADR-RES ovarian
  TGI: 48 µM
SW-620 colon
  TGI: 34.8 µM
HCC-2998 colon
  TGI: 29 µM
SK-MEL-28 melanoma
  TGI: 41 µM
MALME-3M melanoma
  TGI: 33.9 µM
SR leukemia
  TGI: 78.2 µM
HCT-116 colon
  TGI: 27.2 µM
MDA-MB-231 breast
  TGI: 37.4 µM
MCF7 breast
  TGI: 46.2 µM
UACC-62 melanoma
  TGI: 29.3 µM
HCT-15 colon
  TGI: 34.1 µM
NCI-H23 lung
  TGI: 34.6 µM
IGROV1 ovarian
  TGI: 34.4 µM
HOP-62 NSCLC
  TGI: 34.1 µM
CAKI-1 renal
  TGI: 29.2 µM
M14 melanoma
  TGI: 29.2 µM
HS 578T breast
  TGI: 71.1 µM
RXF 393 renal
  TGI: 32.2 µM
LOX IMVI melanoma
  TGI: 32 µM
SNB-19 CNS
  TGI: 30 µM
PC-3 prostate
  TGI: 30.6 µM
K-562 leukemia
  TGI: 53.6 µM
A498 renal
  TGI: 30.6 µM
UO-31 renal
  TGI: 27.2 µM
SF-539 CNS
  TGI: 32.3 µM
ACHN renal
  TGI: 29.1 µM
786-0 renal
  TGI: 26.5 µM
EKVX NSCLC
  TGI: 29 µM
SF-295 CNS
  TGI: 32.3 µM
A549 NSCLC
  TGI: 32.2 µM
T-47D breast
  TGI: 28.3 µM
OVCAR-8 ovarian
  TGI: 43.5 µM
RPMI-8226 leukemia
  TGI: 71.2 µM
CCRF-CEM leukemia
  TGI: 43.9 µM
U251 CNS
  TGI: 33.1 µM
OVCAR-3 ovarian
  TGI: 29.2 µM
SK-MEL-5 melanoma
  TGI: 31 µM
NCI-H522 lung
  TGI: 35.6 µM
TK-10 renal
  TGI: 30.7 µM
NCI-H460 lung
  TGI: 36.4 µM
DU-145 prostate
  TGI: 32.9 µM
BT-549 breast
  TGI: 30.9 µM
SF-268 CNS
  TGI: 46.9 µM
UACC-257 melanoma
  TGI: 32.1 µM
SK-MEL-2 melanoma
  TGI: 38.5 µM
MDA-MB-435
  TGI: 31.7 µM
OVCAR-4 ovarian
  TGI: 31.4 µM
MDA-N
  TGI: 29.9 µM
KM12 colon
  TGI: 31.2 µM

From PubChem BioAssay (NCI)
